Read-outs that look alike come from different tables or passages of the source.
Experiments:
in vivo = settings: female, Sprague-Dawley, rat, iv, pregnant rats; for MRT / Tmax / half-life: 15 mg/kg; for MRT: MRT (mean residence time); for half-life: t1/2 (elimination half-life); for Kp: AUCtissue/AUCblood (maternal blood-to-tissue transfer ratio)
[1] = oral; cited from earlier work
[2] = for Autosampler stability: 4°C for 6 hours; for Long-term stability: -20°C for 1 month; for Bench-top stability: room temperature for 6 hours; for Freeze‒thaw stability: three cycles
[3] = for nirmatrelvir concentration in dialysate sample: 60 min after nirmatrelvir 15 mg/kg i.v., representative sample
[4] = amniotic fluid, nirmatrelvir 15 mg/kg i.v. plus ritonavir 7 mg/kg i.v.
[5] = fetus, nirmatrelvir 15 mg/kg i.v. alone
[6] = fetus, nirmatrelvir 15 mg/kg i.v. plus ritonavir 7 mg/kg i.v.
[7] = maternal blood, nirmatrelvir 15 mg/kg i.v. alone
[8] = maternal blood, nirmatrelvir 15 mg/kg i.v. plus ritonavir 7 mg/kg i.v.
[9] = placenta, nirmatrelvir 15 mg/kg i.v. alone
[10] = placenta, nirmatrelvir 15 mg/kg i.v. plus ritonavir 7 mg/kg i.v.
[11] = amniotic fluid, nirmatrelvir 15 mg/kg i.v. alone
[12] = amniotic fluid dialysate, 5 ng/mL
[13] = amniotic fluid dialysate, 250 ng/mL
[14] = male rat blood dialysate, 5 ng/mL
[15] = male rat blood dialysate, 250 ng/mL
[16] = male rat brain dialysate, 5 ng/mL
[17] = male rat brain dialysate, 250 ng/mL
[18] = pregnant rat maternal blood dialysate, 5 ng/mL
[19] = pregnant rat maternal blood dialysate, 250 ng/mL

Question: Which results are given for `CC(C)(C)[C@H](NC(=O)C(F)(F)F)C(=O)N1C[C@H]2[C@@H]([C@H]1C(=O)N[C@H](C#N)C[C@@H]1CCNC1=O)C2(C)C` [Nirmatrelvir]?
Answer: MRT (in vivo; [4]): 7.62 h; MRT (in vivo; [5]): 5.13 h; MRT (in vivo; [6]): 21.1 h; MRT (in vivo; [7]): 0.8 h; MRT (in vivo; [8]): 3.22 h; MRT (in vivo; [9]): 2.53 h; MRT (in vivo; [10]): 6.92 h; Tmax (in vivo; [11]): 1.05 h; Tmax (in vivo; [4]): 3.6 h; Tmax (in vivo; [5]): 1.17 h; Tmax (in vivo; [6]): 3.93 h; Tmax (in vivo; [9]): 0.667 h; Tmax (in vivo; [10]): 2.2 h; half-life (in vivo; [11]): 2.78 ± 0.683 h; half-life (in vivo; [4]): 4.02 ± 1.75 h; half-life (in vivo; [5]): 3.03 ± 1 h; half-life (in vivo; [6]): 13.7 ± 9.1 h; half-life (in vivo; [7]): 0.25 ± 0.0167 h; half-life (in vivo; [8]): 0.667 ± 0.117 h; half-life (in vivo; [10]): 4.27 ± 0.65 h; Kp (in vivo; [4]): 0.2 ± 0.07; Kp (in vivo; [6]): 0.06 ± 0.02; Kp (in vivo; [10]): 0.13 ± 0.02; bioavailability [1]: approximately 50%; Autosampler stability [2, 12]: 101.84 ± 1.89%; Long-term stability [2, 12]: 97.21 ± 0.39%; Bench-top stability [2, 12]: 104.82 ± 1.50%; Freeze‒thaw stability [2, 12]: 107.43 ± 5.37%; Autosampler stability [2, 13]: 102.44 ± 2.35%; Long-term stability [2, 13]: 93.43 ± 1.54%; Bench-top stability [2, 13]: 98.60 ± 1.46%; Freeze‒thaw stability [2, 13]: 99.39 ± 4.32%; Autosampler stability ([2]; fetus dialysate, 5 ng/mL): 95.10 ± 0.47%; Long-term stability ([2]; fetus dialysate, 5 ng/mL): 95.20 ± 1.21%; Bench-top stability ([2]; fetus dialysate, 5 ng/mL): 102.37 ± 2.51%; Freeze‒thaw stability ([2]; fetus dialysate, 5 ng/mL): 107.56 ± 0.63%; Autosampler stability ([2]; fetus dialysate, 250 ng/mL): 97.12 ± 1.94%; Long-term stability ([2]; fetus dialysate, 250 ng/mL): 91.79 ± 1.56%; Bench-top stability ([2]; fetus dialysate, 250 ng/mL): 101.02 ± 0.48%; Freeze‒thaw stability ([2]; fetus dialysate, 250 ng/mL): 98.02 ± 2.49%; Autosampler stability [2, 14]: 95.56 ± 6.20%; Long-term stability [2, 14]: 89.61 ± 1.00%; Bench-top stability [2, 14]: 104.5 ± 1.73%; Freeze‒thaw stability [2, 14]: 100.3 ± 3.40%; Autosampler stability [2, 15]: 94.23 ± 4.18%; Long-term stability [2, 15]: 88.54 ± 1.07%; Bench-top stability [2, 15]: 97.60 ± 0.73%; Freeze‒thaw stability [2, 15]: 88.57 ± 0.33%; Autosampler stability [2, 16]: 92.51 ± 2.01%; Long-term stability [2, 16]: 90.07 ± 2.77%; Bench-top stability [2, 16]: 100.6 ± 0.37%; Freeze‒thaw stability [2, 16]: 99.58 ± 1.02%; Autosampler stability [2, 17]: 93.59 ± 4.41%; Long-term stability [2, 17]: 87.36 ± 2.58%; Bench-top stability [2, 17]: 95.79 ± 0.24%; Freeze‒thaw stability [2, 17]: 92.01 ± 0.29%; Autosampler stability ([2]; placenta dialysate, 5 ng/mL): 101.55 ± 6.56%; Long-term stability ([2]; placenta dialysate, 5 ng/mL): 97.38 ± 0.55%; Bench-top stability ([2]; placenta dialysate, 5 ng/mL): 100.37 ± 1.24%; Freeze‒thaw stability ([2]; placenta dialysate, 5 ng/mL): 101.85 ± 4.27%; Autosampler stability ([2]; placenta dialysate, 250 ng/mL): 98.14 ± 3.84%; Long-term stability ([2]; placenta dialysate, 250 ng/mL): 88.97 ± 1.33%; Bench-top stability ([2]; placenta dialysate, 250 ng/mL): 98.87 ± 0.27%; Freeze‒thaw stability ([2]; placenta dialysate, 250 ng/mL): 100.83 ± 0.95%; Autosampler stability [2, 18]: 102.98 ± 4.81%; Long-term stability [2, 18]: 87.18 ± 0.87%; Bench-top stability [2, 18]: 96.42 ± 2.53%; Freeze‒thaw stability [2, 18]: 101.21 ± 2.66%; Autosampler stability [2, 19]: 98.97 ± 4.80%; Long-term stability [2, 19]: 87.65 ± 1.83%; Bench-top stability [2, 19]: 98.68 ± 1.18%; Freeze‒thaw stability [2, 19]: 105.98 ± 2.99%; nirmatrelvir concentration in dialysate sample ([3]; blood dialysate): 78.01 ng/mL; nirmatrelvir concentration in dialysate sample ([3]; brain dialysate): 36.36 ng/mL; protein unbound nirmatrelvir concentrations in blood and brain versus EC90 ([3]; male rats): all higher than the EC90
